Source: article PMC7104248, “Discovery of Taniborbactam (VNRX-5133): A Broad-Spectrum Serine- and Metallo-β-lactamase Inhibitor for Carbapenem-Resistant Bacterial Infections” (Journal of Medicinal Chemistry, 2019)
Values after ≈ are worked out from the molar mass of the structure shown. Where two headings read alike, the source gives them in different places.

Key:
NDM-1 = NDM-1 (Klebsiella pneumoniae, UniProt C7C422); assay: biochemical
IMP-1 [1] = target: T1, IMP-1 (Serratia marcescens, UniProt P52699); assay: β-lactamase inhibition assay, nitrocefin substrate; type: biochemical
T1 sequence (P52699 19-246 limits assumed): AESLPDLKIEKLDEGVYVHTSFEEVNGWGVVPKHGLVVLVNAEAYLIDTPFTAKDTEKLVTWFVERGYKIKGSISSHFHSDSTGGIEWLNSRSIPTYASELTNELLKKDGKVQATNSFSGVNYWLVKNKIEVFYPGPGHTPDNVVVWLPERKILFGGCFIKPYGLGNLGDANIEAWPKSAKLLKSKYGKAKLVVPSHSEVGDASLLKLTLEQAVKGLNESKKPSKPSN

[2] = system: P. aeruginosa CDC-0457 (VIM); assay: MIC, rescue of β-lactams in MDR clinical isolates; type: cell-based; conditions: Pseudomonas aeruginosa
[3] = system: K. pneumoniae ATCC BAA 1705 (KPC-2); assay: MIC, rescue of β-lactams in MDR clinical isolates; type: cell-based; conditions: Klebsiella pneumoniae
[4] = system: P. aeruginosa CDC-0356 (KPC-2, PDC-42); assay: MIC, rescue of β-lactams in MDR clinical isolates; type: cell-based; conditions: Pseudomonas aeruginosa
E. coli CDC-0452 (NDM) = assay: MIC, rescue of β-lactams in MDR clinical isolates; type: cell-based; conditions: Escherichia coli
[5] = system: E. coli UNT-057-1 expressing CTX-M-15; assay: mouse ascending urinary tract infection model; type: in vivo; conditions: mice, at day 7; BID s.c.; cefepime alone, cefepime/VNRX-5133 16:8, Caz/Avi 16:4 mg/kg/dose
[6] = system: K. pneumoniae CDC-0066 (OXA-232, OXA-9, TEM-1A, CTX-M-15, OXA-1); assay: MIC, rescue of β-lactams in MDR clinical isolates; type: cell-based; conditions: Klebsiella pneumoniae
[7] = system: K. pneumoniae CDC-0040 (VIM-27, CTX-M-15, SHV-11, OXA-1); assay: MIC, rescue of β-lactams in MDR clinical isolates; type: cell-based; conditions: Klebsiella pneumoniae
[8] = system: K. pneumoniae CDC-0361 (KPC-2, SHV-12, TEM-1); assay: MIC, rescue of β-lactams in MDR clinical isolates; type: cell-based; conditions: Klebsiella pneumoniae
[9] = system: E. coli CDC-0055 (NDM-1, CMY-6, OXA-1); assay: MIC, rescue of β-lactams in MDR clinical isolates; type: cell-based; conditions: Escherichia coli
E. coli (CTX-M-15) = assay: MIC against the urinary tract model strain; type: cell-based; conditions: Escherichia coli
K. pneumoniae (CTX-M-14) = assay: MIC against the lung model strain; type: cell-based; conditions: Klebsiella pneumoniae
[10] = system: K. pneumoniae UNT-065-1 expressing CTX-M-14; assay: neutropenic mouse lung infection model; type: in vivo; conditions: neutropenic mice
VIM-2 = VIM-2 (Escherichia coli, UniProt Q5U7L7); assay: β-lactamase inhibition assay, nitrocefin substrate; type: biochemical; conditions: in our hands
[11] = system: P. aeruginosa Ps296 (AmpC, VIM-2, TEM-1); assay: intrinsic antibacterial activity, MIC; type: cell-based; conditions: Pseudomonas aeruginosa
MMP-9 = MMP-9 (Homo sapiens, UniProt P14780); assay: selectivity panel at 100 μM; type: biochemical
Sequence of MMP-9 (P14780 94-707): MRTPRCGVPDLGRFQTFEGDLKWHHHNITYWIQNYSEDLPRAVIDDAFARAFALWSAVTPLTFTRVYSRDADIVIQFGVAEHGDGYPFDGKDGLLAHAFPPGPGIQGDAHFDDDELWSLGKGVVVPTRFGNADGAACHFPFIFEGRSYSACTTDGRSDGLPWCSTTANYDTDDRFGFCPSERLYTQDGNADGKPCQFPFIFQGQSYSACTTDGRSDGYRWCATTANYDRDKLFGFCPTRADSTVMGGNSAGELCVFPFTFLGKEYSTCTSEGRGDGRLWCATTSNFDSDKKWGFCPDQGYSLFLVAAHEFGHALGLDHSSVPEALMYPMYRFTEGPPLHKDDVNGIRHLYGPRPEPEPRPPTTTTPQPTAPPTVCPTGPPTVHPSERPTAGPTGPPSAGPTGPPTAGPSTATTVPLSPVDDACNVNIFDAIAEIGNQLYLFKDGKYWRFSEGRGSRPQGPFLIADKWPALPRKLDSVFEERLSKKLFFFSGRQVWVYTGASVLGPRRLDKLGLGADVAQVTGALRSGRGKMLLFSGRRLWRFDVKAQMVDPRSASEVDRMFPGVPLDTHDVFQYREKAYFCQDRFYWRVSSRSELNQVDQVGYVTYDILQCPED
From the text: (§1) The panel included serine proteases (i.e., cathepsin G, chymotrypsin, Factor Xa, trypsin, and neutrophil elastase 2), metalloproteinases (MMP-1, -2, -3, and -9), cytochrome P450s (1A2, 2C9, 2C19, 2D6, and 3A4), and the hERG potassium channel.

Factor Xa = target: T2, Factor Xa (Homo sapiens, UniProt P00742); assay: selectivity panel at 100 μM; type: biochemical
T2 construct: serine proteases (i.e., cathepsin G, chymotrypsin, Factor Xa, trypsin, and neutrophil elastase 2)
T2 sequence (P00742 235-488 limits assumed): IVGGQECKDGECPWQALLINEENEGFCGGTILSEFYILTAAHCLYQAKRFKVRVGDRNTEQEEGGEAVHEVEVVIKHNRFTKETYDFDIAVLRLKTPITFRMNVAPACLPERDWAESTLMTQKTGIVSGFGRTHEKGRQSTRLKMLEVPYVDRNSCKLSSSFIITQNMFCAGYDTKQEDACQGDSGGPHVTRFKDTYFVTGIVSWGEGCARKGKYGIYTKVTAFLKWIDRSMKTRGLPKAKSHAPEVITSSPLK
T2 sequence (P00742 41-179 partner limits assumed): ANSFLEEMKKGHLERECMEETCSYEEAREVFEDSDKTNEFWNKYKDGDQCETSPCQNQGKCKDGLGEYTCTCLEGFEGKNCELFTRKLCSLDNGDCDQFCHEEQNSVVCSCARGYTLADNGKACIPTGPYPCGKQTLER
From the text: as §1

neutrophil elastase 2 = neutrophil elastase 2 (Homo sapiens, UniProt P08246); assay: selectivity panel at 100 μM; type: biochemical
Sequence of neutrophil elastase 2 (P08246 30-267): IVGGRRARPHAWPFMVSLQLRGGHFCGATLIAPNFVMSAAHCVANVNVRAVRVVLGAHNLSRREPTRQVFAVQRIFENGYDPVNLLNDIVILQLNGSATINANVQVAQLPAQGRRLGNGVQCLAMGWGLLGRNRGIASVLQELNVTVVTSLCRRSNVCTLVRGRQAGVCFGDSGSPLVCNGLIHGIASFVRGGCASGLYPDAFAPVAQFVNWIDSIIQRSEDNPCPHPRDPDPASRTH
From the text: as §1

cathepsin G = cathepsin G (Homo sapiens, UniProt P08311); assay: selectivity panel at 100 μM; type: biochemical
From the text: as §1

MMP-1 = MMP-1 (Homo sapiens, UniProt P03956); assay: selectivity panel at 100 μM; type: biochemical
From the text: as §1

MMP-3 = MMP-3 (Homo sapiens, UniProt P08254); assay: selectivity panel at 100 μM; type: biochemical
From the text: as §1

MMP-2 = MMP-2 (Homo sapiens, UniProt P08253); assay: selectivity panel at 100 μM; type: biochemical
From the text: as §1

[12] = system: P. aeruginosa 27853 (W/T); assay: intrinsic antibacterial activity, MIC; type: cell-based; conditions: Pseudomonas aeruginosa
S. aureus 29213 (W/T) = assay: intrinsic antibacterial activity, MIC; type: cell-based; conditions: Staphylococcus aureus
[13] = system: 14 Gram-negative pathogens expressing class B enzymes (VIM-1, VIM-2, VIM-4, NDM-1); type: cell-based; conditions: 14 MBL-producing strains
L1 = system: L1; design: method as in PMID 31454231; conditions: cited from earlier work
[14] = system: K. pneumoniae 11978 (OXA-48); assay: intrinsic antibacterial activity, MIC; type: cell-based; conditions: Klebsiella pneumoniae
CphA = conditions: read-out: IC50 subclass B2 MBL CphA; cited from earlier work
[15] = system: K. pneumoniae UMM (SHV5, KPC-2, TEM-1); assay: intrinsic antibacterial activity, MIC; type: cell-based; conditions: Klebsiella pneumoniae
[16] = system: E. coli J53 (SHV5, AmpC, TEM-1); assay: intrinsic antibacterial activity, MIC; type: cell-based; conditions: Escherichia coli
E. coli 25922 (W/T) = assay: intrinsic antibacterial activity, MIC; type: cell-based; conditions: Escherichia coli
OXA-48 = OXA-48 (Klebsiella pneumoniae, UniProt Q6XEC0); conditions: read-out: IC50 OXA-48, literature value in parentheses; cited from earlier work
hERG potassium channel = hERG potassium channel (Homo sapiens, UniProt Q12809); assay: selectivity panel at 100 μM
Sequence of hERG potassium channel (Q12809 whole entry): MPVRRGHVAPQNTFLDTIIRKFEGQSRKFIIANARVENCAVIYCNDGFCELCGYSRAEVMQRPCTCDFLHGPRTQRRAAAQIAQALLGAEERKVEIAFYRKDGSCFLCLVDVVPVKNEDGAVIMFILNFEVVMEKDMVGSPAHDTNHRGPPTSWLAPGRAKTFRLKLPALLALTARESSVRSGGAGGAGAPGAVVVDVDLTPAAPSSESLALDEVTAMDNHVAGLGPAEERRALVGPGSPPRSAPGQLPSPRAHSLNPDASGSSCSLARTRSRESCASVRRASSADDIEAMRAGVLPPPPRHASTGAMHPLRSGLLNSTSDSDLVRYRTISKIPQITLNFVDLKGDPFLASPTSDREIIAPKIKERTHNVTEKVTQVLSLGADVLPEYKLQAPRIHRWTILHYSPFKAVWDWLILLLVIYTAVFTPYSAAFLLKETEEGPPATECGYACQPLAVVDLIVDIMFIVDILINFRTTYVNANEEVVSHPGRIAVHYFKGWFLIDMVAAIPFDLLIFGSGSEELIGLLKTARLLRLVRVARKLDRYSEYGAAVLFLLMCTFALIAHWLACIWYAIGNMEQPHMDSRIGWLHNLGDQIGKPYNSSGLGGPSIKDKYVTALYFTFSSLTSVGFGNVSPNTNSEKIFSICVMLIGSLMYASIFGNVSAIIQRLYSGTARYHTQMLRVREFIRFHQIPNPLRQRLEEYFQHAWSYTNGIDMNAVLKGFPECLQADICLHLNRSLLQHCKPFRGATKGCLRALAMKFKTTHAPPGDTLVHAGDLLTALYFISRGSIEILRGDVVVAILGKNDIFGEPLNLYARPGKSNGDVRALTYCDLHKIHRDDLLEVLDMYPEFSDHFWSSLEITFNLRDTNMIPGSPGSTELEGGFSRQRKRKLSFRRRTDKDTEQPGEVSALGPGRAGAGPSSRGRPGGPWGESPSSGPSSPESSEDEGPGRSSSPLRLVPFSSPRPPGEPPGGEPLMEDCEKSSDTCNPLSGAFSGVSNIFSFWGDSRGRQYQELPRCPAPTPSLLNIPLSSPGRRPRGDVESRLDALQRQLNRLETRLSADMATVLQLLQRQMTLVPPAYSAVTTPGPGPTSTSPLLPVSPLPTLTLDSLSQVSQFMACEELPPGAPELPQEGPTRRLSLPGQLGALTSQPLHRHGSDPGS
From the text: as §1

[17] = system: panel of 50 human enzymes and receptors; assay: selectivity panel at 100 μM
From the text: as §1

IMP-1 [18] = target: T1, IMP-1; conditions: read-out: IC50 IMP-1, literature value in parentheses; cited from earlier work
[19] = system: K. pneumoniae CI 09 (W/T); assay: intrinsic antibacterial activity, MIC; type: cell-based; conditions: Klebsiella pneumoniae
[20] = preclinical toxicity evaluation
From the text: NCT03840148 at ClinicalTrials.gov).

trypsin = assay: selectivity panel at 100 μM; type: biochemical, human
From the text: as §1

chymotrypsin = assay: selectivity panel at 100 μM; type: biochemical, human
From the text: as §1

[21] = system: E. cloacae 144200 (p99 AmpC); assay: intrinsic antibacterial activity, MIC; type: cell-based; conditions: Enterobacter cloacae
[22] = system: K. pneumoniae A-1797 (KPC-2, VIM-4, CMY-4); assay: microbe, parasite or virus in culture; type: cell-based; conditions: Klebsiella pneumoniae
S. aureus 33591 (MRSA) = assay: intrinsic antibacterial activity, MIC; type: cell-based; conditions: Staphylococcus aureus
cytochrome P450 3A4 = cytochrome P450 3A4 (Homo sapiens, UniProt P08684); assay: selectivity panel at 100 μM; type: in vitro ADME
Sequence of cytochrome P450 3A4 (P08684 whole entry): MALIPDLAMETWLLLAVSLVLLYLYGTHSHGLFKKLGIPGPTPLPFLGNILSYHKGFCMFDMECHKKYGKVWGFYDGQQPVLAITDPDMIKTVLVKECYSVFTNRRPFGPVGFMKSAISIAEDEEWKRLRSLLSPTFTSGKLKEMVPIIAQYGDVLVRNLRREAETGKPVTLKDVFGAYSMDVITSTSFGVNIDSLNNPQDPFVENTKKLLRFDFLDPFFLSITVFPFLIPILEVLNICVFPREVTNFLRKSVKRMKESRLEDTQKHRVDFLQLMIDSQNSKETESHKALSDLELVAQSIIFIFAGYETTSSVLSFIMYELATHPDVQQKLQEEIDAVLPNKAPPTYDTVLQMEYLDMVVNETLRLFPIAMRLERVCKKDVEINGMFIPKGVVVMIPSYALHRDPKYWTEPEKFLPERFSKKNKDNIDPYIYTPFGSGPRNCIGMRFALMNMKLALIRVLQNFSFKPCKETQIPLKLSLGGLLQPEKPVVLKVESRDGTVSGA
From the text: as §1

cytochrome P450 2D6 = cytochrome P450 2D6 (Homo sapiens, UniProt P10635); assay: selectivity panel at 100 μM; type: in vitro ADME
Sequence of cytochrome P450 2D6 (P10635 whole entry): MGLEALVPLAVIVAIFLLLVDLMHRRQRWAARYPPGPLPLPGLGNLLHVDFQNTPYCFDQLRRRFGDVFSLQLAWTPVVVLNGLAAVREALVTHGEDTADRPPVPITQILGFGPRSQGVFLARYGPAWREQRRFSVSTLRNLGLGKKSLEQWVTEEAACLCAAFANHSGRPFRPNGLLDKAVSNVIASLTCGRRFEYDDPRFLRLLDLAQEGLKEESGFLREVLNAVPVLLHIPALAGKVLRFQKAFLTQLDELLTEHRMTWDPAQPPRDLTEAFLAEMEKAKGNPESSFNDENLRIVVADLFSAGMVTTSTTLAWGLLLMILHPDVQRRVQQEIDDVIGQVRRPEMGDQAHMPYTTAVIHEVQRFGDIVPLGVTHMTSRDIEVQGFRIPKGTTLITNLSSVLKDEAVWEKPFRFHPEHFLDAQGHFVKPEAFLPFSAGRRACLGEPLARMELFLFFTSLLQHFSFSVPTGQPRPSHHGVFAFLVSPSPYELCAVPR
From the text: as §1

cytochrome P450 1A2 = cytochrome P450 1A2 (Homo sapiens, UniProt P05177); assay: selectivity panel at 100 μM; type: in vitro ADME
Sequence of cytochrome P450 1A2 (P05177 whole entry): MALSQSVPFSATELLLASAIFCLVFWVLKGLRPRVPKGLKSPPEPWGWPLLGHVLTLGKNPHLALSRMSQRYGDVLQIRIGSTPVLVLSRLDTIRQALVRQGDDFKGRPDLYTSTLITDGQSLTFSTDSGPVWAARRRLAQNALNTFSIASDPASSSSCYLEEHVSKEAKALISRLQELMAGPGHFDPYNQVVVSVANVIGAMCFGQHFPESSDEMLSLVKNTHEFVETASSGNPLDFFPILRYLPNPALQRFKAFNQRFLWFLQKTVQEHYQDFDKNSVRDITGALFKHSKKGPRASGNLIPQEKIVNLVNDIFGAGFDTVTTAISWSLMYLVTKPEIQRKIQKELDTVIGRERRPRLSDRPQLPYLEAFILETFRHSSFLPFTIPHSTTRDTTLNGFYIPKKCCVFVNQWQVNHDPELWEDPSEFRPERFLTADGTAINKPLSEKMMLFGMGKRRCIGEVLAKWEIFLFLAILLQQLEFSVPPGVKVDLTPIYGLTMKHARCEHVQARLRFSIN
From the text: as §1

cytochrome P450 2C9 = cytochrome P450 2C9 (Homo sapiens, UniProt P11712); assay: selectivity panel at 100 μM; type: in vitro ADME
Sequence of cytochrome P450 2C9 (P11712 whole entry): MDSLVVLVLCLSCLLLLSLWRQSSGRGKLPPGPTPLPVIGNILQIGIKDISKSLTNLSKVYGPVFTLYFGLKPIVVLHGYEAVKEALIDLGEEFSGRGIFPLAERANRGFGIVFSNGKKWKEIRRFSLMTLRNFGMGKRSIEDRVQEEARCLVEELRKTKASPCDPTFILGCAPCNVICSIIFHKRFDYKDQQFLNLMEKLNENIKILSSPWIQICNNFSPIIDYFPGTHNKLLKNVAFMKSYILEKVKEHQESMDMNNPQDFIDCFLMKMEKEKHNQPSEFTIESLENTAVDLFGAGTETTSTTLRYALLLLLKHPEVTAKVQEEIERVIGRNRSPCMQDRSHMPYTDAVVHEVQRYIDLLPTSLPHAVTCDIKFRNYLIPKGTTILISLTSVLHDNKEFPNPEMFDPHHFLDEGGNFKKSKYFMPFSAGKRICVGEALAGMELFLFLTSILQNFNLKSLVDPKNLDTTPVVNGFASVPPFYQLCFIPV
From the text: as §1

cytochrome P450 2C19 = cytochrome P450 2C19 (Homo sapiens, UniProt P33261); assay: selectivity panel at 100 μM; type: in vitro ADME
From the text: as §1

[23] = system: E. aerogenes 188548 (AmpC); assay: intrinsic antibacterial activity, MIC; type: cell-based; conditions: Klebsiella aerogenes
[24] = system: human primary renal proximal tubule cells; assay: toxicity in renal proximal tubule cells; type: cell-based; conditions: tested up to 1000 μg/mL
[25] = system: P. aeruginosa expressing VIM-2; assay: broth microdilution MIC, meropenem potentiation; type: cell-based; conditions: Pseudomonas aeruginosa, read-out: MIC of meropenem alone
[26] = system: K. pneumoniae expressing KPC-2 and VIM-4; assay: broth microdilution MIC, meropenem potentiation; type: cell-based; conditions: Klebsiella pneumoniae, read-out: MIC of meropenem alone
[27] = system: K. pneumoniae expressing KPC-2; assay: broth microdilution MIC, meropenem potentiation; type: cell-based; conditions: Klebsiella pneumoniae, read-out: MIC of meropenem alone
[28] = system: K. pneumoniae expressing OXA-48; assay: broth microdilution MIC, meropenem potentiation; type: cell-based; conditions: Klebsiella pneumoniae, read-out: MIC of meropenem alone

Sequence of NDM-1 (C7C422 29-270 limits assumed): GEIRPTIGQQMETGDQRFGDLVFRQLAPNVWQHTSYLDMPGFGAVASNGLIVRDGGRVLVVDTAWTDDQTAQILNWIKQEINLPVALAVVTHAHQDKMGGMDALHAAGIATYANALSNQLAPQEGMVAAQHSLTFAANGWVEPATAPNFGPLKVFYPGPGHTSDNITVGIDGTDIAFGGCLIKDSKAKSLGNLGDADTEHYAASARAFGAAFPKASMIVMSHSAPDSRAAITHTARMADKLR

## NC(=O)[C@@H]1CC[C@@H]2CN1C(=O)N2OS(=O)(=O)O [avibactam]
NDM-1
  IC50: > 100 µM
IMP-1 [1]
  IC50: > 100 µM

## CO/N=C(\C(=O)N[C@@H]1C(=O)N2C(C(=O)[O-])=C(C[N+]3(C)CCCC3)CS[C@H]12)c1csc(N)n1 [cefepime]
[2]; read-out: FEP MIC
  MIC: 16 µg/mL (≈ 33.3 µM)
[3]; BAA1705, read-out: FEP MIC
  MIC: 16 µg/mL (≈ 33.3 µM)
[4]; read-out: FEP MIC
  MIC: > 128 µg/mL
E. coli CDC-0452 (NDM); read-out: FEP MIC
  MIC: 64 µg/mL (≈ 133 µM)
[5]
  log10 CFU/kidney: 7.25 ± 0.16 log10 CFU/kidney
[6]; read-out: FEP MIC
  MIC: > 128 µg/mL
[7]; read-out: FEP MIC
  MIC: > 128 µg/mL
[8]; read-out: FEP MIC
  MIC: 32 µg/mL (≈ 66.6 µM)
[9]; read-out: FEP MIC
  MIC: 128 µg/mL (≈ 266 µM)
E. coli (CTX-M-15)
  MIC: 128 µg/mL (≈ 266 µM)
K. pneumoniae (CTX-M-14)
  MIC: 64 µg/mL (≈ 133 µM)
[10]; at 24 h, cefepime alone 32, cefepime/VNRX-5133 32:16, Caz/Avi 32:8 mg/kg s.c. single dose
  log10 CFU/lung: 9.27 ± 0.21 log10 CFU/lung
[10]; single subcutaneous dose, cefepime 32 mg/kg alone or cefepime/20 32 and 16 mg/kg, 24 h
  reduction in viable bacterial counts in lung tissue: not effective

## O=C(O)[C@H]1/C(=C/CO)O[C@@H]2CC(=O)N21 [clavulanic acid]
NDM-1
  IC50: > 100 µM
IMP-1 [1]
  IC50: > 100 µM

## CC(=O)N[C@H]1Cc2cccc(C(=O)O)c2OB1O [compound 1]
VIM-2
  inhibition of the MBL VIM-2, in words: micromolar levels

## NCc1ccc(CC(=O)N[C@H]2Cc3cccc(C(=O)O)c3OB2O)cc1 [compound 3]
VIM-2
  inhibition of the MBL VIM-2, in words: micromolar levels

## NCCN[C@H]1CC[C@H](CC(=O)N[C@H]2Cc3cccc(C(=O)O)c3OB2O)CC1 [compound 20, (3R)-3-(2-{trans-4-[(2-Aminoethyl)amino]cyclohexyl}acetamido)-2-hydroxy-3,4-dihydro-2H-1,2-benzoxaborinine-8-carboxylic Acid]
[11]
  MIC: > 128 µg/mL
MMP-9
  activity against MMP-9: no significant activity
Factor Xa
  activity against Factor Xa: no significant activity
Neutrophil elastase 2
  activity against neutrophil elastase 2: no significant activity
Cathepsin G
  activity against cathepsin G: no significant activity
MMP-1
  activity against MMP-1: no significant activity
MMP-3
  activity against MMP-3: no significant activity
MMP-2
  activity against MMP-2: no significant activity
[12]
  MIC: > 128 µg/mL
S. aureus 29213 (W/T)
  MIC: > 128 µg/mL
[13]
  decrease in the MIC of cefepime on addition of BLI: ≥ 512 fold
L1
  inhibition of subclass B3 MBL L1: did not inhibit
[14]
  MIC: > 128 µg/mL
CphA
  IC50: ~2.51 µM
[15]
  MIC: > 128 µg/mL
[16]
  MIC: > 128 µg/mL
E. coli 25922 (W/T)
  MIC: > 128 µg/mL
OXA-48
  IC50: 0.54 µM
hERG potassium channel
  activity against hERG potassium channel: no significant activity
[17]
  activity against panel of 50 human enzymes and receptors: no significant activity
IMP-1 [18]
  IC50: 2.51 µM
[19]
  MIC: > 128 µg/mL
[20]
  safety profile in the preclinical toxicity evaluation: clean safety profile
trypsin
  activity against trypsin: no significant activity
chymotrypsin
  activity against chymotrypsin: no significant activity
[21]
  MIC: > 128 µg/mL
[22]
  MIC: > 128 µg/mL
S. aureus 33591 (MRSA)
  MIC: > 128 µg/mL
Cytochrome P450 3A4
  activity against cytochrome P450 3A4: no significant activity
Cytochrome P450 2D6
  activity against cytochrome P450 2D6: no significant activity
Cytochrome P450 1A2
  activity against cytochrome P450 1A2: no significant activity
Cytochrome P450 2C9
  activity against cytochrome P450 2C9: no significant activity
Cytochrome P450 2C19
  activity against cytochrome P450 2C19: no significant activity
[23]
  MIC: > 128 µg/mL
[24]
  toxicity in human primary proximal tubule cells: No toxicity

## C[C@@H](O)[C@H]1C(=O)N2C(C(=O)O)=C(S[C@@H]3CN[C@H](C(=O)N(C)C)C3)[C@H](C)[C@H]12 [meropenem]
[25]
  MIC: ≥ 32 µg/mL
[26]
  MIC: ≥ 32 µg/mL
[27]
  MIC: ≥ 32 µg/mL
[28]
  MIC: ≥ 32 µg/mL

## CCN1CCN(C(=O)N[C@@H](C(=O)N[C@@H]2C(=O)N3[C@@H]2SC(C)(C)[C@@H]3C(=O)O)c2ccccc2)C(=O)C1=O [piperacillin]
[2]; read-out: PIP MIC
  MIC: 64 µg/mL (≈ 124 µM)
[3]; BAA1705, read-out: PIP MIC
  MIC: > 128 µg/mL
[4]; read-out: PIP MIC
  MIC: > 128 µg/mL
E. coli CDC-0452 (NDM); read-out: PIP MIC
  MIC: > 128 µg/mL
[6]; read-out: PIP MIC
  MIC: > 128 µg/mL
[7]; read-out: PIP MIC
  MIC: > 128 µg/mL
[8]; read-out: PIP MIC
  MIC: > 128 µg/mL
[9]; read-out: PIP MIC
  MIC: > 128 µg/mL

## C[C@]1(Cn2ccnn2)[C@H](C(=O)O)N2C(=O)C[C@H]2S1(=O)=O [tazobactam]
NDM-1
  IC50: > 100 µM
IMP-1 [1]
  IC50: > 100 µM

## O=C(O)C[C@@H]1CC[C@H](NC(=O)Cc2cccs2)B(O)O1 [vaborbactam]
NDM-1
  IC50: > 100 µM
IMP-1 [1]
  IC50: > 100 µM
